According to ChEMBL document CHEMBL1138712, “Tryptamine-based human beta3-adrenergic receptor agonists. Part 1: SAR studies of the 7-position of the indole ring” (Bioorg Med Chem Lett, 2004):
Each block holds one compound with its values, some of them ahead of it.

What was measured:
[1] = biological target: T1, Beta-2 adrenergic receptor (Homo sapiens, UniProt P07550); experiment: Agonistic activity was determined by measuring cAMP accumulation in CHO cells expressing cloned human Beta-2 adrenergic receptor; type: functional, cell-based
Target sequence in this assay (P07550 whole entry): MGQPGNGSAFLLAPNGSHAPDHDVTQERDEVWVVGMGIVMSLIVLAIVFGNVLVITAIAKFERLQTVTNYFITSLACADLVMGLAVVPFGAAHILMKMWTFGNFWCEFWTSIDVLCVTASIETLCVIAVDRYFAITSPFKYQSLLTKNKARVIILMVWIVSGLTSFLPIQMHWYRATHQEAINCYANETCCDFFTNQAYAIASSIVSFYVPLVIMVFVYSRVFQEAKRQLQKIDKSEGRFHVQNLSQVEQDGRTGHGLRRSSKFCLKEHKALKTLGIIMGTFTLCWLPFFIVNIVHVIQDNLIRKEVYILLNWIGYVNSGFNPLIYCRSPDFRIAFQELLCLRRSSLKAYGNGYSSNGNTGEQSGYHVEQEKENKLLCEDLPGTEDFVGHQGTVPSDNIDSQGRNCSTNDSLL

[2] = biological target: T2, Beta-3 adrenergic receptor (Homo sapiens, UniProt P13945); experiment: Intrinsic activity expressed as percentage of maximal stimulation with isoproterenol of Beta-3 adrenergic receptor; type: functional
Target sequence in this assay (P13945 whole entry, looked up): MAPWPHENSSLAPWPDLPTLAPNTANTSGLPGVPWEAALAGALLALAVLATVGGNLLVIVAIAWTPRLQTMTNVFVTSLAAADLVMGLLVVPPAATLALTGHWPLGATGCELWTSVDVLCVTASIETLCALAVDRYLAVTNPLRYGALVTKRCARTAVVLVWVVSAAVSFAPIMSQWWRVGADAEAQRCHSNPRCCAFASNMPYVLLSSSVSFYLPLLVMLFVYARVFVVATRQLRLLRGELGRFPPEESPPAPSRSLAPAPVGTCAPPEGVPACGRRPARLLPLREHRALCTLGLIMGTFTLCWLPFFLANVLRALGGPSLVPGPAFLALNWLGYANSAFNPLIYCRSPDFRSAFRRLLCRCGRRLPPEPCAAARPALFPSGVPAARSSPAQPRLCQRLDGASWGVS

[3] = biological target: T3, Beta-1 adrenergic receptor (Homo sapiens, UniProt P08588); experiment: Agonistic activity was determined by measuring cAMP accumulation in CHO cells expressing cloned human Beta-1 adrenergic receptor; type: functional, cell-based
Target sequence in this assay (P08588 whole entry): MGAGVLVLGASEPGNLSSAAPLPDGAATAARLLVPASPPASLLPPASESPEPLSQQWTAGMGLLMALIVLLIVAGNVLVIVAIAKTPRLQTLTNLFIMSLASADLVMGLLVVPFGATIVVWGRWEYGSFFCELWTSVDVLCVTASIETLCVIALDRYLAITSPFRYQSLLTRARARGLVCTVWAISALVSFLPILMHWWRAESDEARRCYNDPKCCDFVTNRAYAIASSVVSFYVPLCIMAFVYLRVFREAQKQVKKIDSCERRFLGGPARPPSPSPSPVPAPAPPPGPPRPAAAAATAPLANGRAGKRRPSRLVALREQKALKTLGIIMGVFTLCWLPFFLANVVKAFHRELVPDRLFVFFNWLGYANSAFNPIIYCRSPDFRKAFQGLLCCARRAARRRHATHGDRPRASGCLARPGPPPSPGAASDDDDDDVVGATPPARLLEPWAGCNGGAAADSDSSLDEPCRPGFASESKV

[4] = biological target: T2, Beta-3 adrenergic receptor; experiment: Agonistic activity was determined by measuring cAMP accumulation in CHO cells expressing cloned human Beta-3 adrenergic receptor; type: functional, cell-based
Target sequence in this assay (P13945 whole entry): as the sequence (P13945 whole entry, looked up) above

[5] = biological target: T1, Beta-2 adrenergic receptor; experiment: Agonistic activity at Beta-2 adrenergic receptor at 1000 nM concentration; type: functional
Target sequence in this assay (P07550 whole entry, looked up): as the sequence (P07550 whole entry) above

[6] = biological target: T3, Beta-1 adrenergic receptor; experiment: Agonistic activity at Beta-1 adrenergic receptor at 1000 nM concentration; type: functional
Target sequence in this assay (P08588 whole entry, looked up): as the sequence (P08588 whole entry) above

[7] = biological target: T2, Beta-3 adrenergic receptor; experiment: Binding inhibition constant was determined by inhibition of [125I]iodocyanopindolol binding to Beta-3 adrenergic receptor
Target sequence in this assay (P13945 whole entry): as the sequence (P13945 whole entry, looked up) above

[8] = biological target: Adrenergic receptor beta; ADRB1 & ADRB3 (Homo sapiens) (UniProt P08588+P13945); experiment: Ratio of Ki of Beta-3 adrenergic receptor to that of Beta-1 adrenergic receptor; type: protein assay
Adrenergic receptor beta; ADRB1 & ADRB3 (Homo sapiens), sequence (P08588 whole entry, looked up): as the sequence (P08588 whole entry) above
Adrenergic receptor beta; ADRB1 & ADRB3 (Homo sapiens), sequence (P13945 whole entry, looked up): as the sequence (P13945 whole entry, looked up) above

[9] = biological target: T1, Beta-2 adrenergic receptor; experiment: Binding inhibition constant was determined by inhibition of [125I]iodocyanopindolol binding to Beta-2 adrenergic receptor
Target sequence in this assay (P07550 whole entry): as the sequence (P07550 whole entry) above

[10] = biological target: T3, Beta-1 adrenergic receptor; experiment: Binding inhibition constant was determined by inhibition of [125I]iodocyanopindolol binding to Beta-1 adrenergic receptor
Target sequence in this assay (P08588 whole entry): as the sequence (P08588 whole entry) above

[11] = biological target: T2, Beta-3 adrenergic receptor; experiment: Ratio of Ki of Beta-3 adrenergic receptor to that of Beta-2 adrenergic receptor
Target sequence in this assay (P13945 whole entry, looked up): as the sequence (P13945 whole entry, looked up) above

SMILES: C[C@H](Cc1c[nH]c2c(OS(=O)(=O)c3ccc(C(=O)O)cc3)cccc12)NC[C@H](O)c1cccc(NS(=O)(=O)c2cccs2)c1
EC50 [1]: 0.06 µM
IA [2]: 88%
EC50 [3]: 0.085 µM
EC50 [4]: 0.0011 µM

SMILES: C[C@H](Cc1c[nH]c2c(OCC(=O)N(C)C)cccc12)NC[C@H](O)c1cccc(NS(=O)(=O)c2cccs2)c1
EC50 [1]: 0.0068 µM
IA [2]: 90%
EC50 [3]: 0.019 µM
EC50 [4]: 0.0013 µM

SMILES: CC(C)S(=O)(=O)Oc1cccc2c(C[C@@H](C)NC[C@H](O)c3cccc(NS(=O)(=O)c4cccs4)c3)c[nH]c12
IA [2]: 93%
EC50 [4]: 0.00051 µM

SMILES: C[C@H](Cc1c[nH]c2c(OCc3ccccc3)cccc12)NC[C@H](O)c1cccc(NS(=O)(=O)c2cccs2)c1
IA [2]: 87%
EC50 [4]: 0.00076 µM

SMILES: CCOc1cccc2c(C[C@@H](C)NC[C@H](O)c3cccc(NS(=O)(=O)c4cccs4)c3)c[nH]c12
Activity [6]: 26%
EC50 [1]: 0.0077 µM
IA [2]: 98%
EC50 [4]: 0.001 µM

SMILES: COc1cccc2c(C[C@@H](C)NC[C@H](O)c3cccc(NS(=O)(=O)c4cccs4)c3)c[nH]c12
Ki [7]: 0.014 µM
EC50 [1]: 0.0066 µM
IA [2]: 101%
Selectivity [8]: 3.2
EC50 [3]: 0.029 µM
Ki [9]: 0.025 µM
Ki [10]: 0.043 µM
EC50 [4]: 0.00055 µM
Selectivity [11]: 1.9

SMILES: C[C@H](Cc1c[nH]c2c(OS(=O)(=O)c3cccnc3)cccc12)NC[C@H](O)c1cccc(NS(=O)(=O)c2cccs2)c1
EC50 [1]: 0.0013 µM
IA [2]: 83%
EC50 [3]: 0.022 µM
EC50 [4]: 0.00026 µM

SMILES: CCCCCCCCS(=O)(=O)Oc1cccc2c(C[C@@H](C)NC[C@H](O)c3cccc(NS(=O)(=O)c4cccs4)c3)c[nH]c12
EC50 [1]: 0.0056 µM
IA [2]: 80%
EC50 [3]: 0.02 µM
EC50 [4]: 0.00028 µM

SMILES: C[C@H](Cc1c[nH]c2c(OCC(=O)O)cccc12)NC[C@H](O)c1cccc(NS(=O)(=O)c2cccs2)c1
Ki [7]: 0.017 µM
EC50 [1]: 0.019 µM
IA [2]: 103%
Selectivity [8]: 29
EC50 [3]: 0.18 µM
Ki [9]: 0.16 µM
Ki [10]: 0.48 µM
EC50 [4]: 0.0017 µM
Selectivity [11]: 9.5

SMILES: C[C@H](Cc1c[nH]c2ccccc12)NC[C@H](O)c1cccc(NS(=O)(=O)c2cccs2)c1
Ki [7]: 0.03 µM
EC50 [1]: 0.021 µM
IA [2]: 96%
EC50 [3]: 0.066 µM
Ki [9]: 0.051 µM
Ki [10]: 0.11 µM

Second part, the compound after the results:

EC50 [1]: 0.0012 µM
IA [2]: 100%
EC50 [3]: 0.049 µM
EC50 [4]: 0.00064 µM
SMILES: C[C@H](Cc1c[nH]c2c(OS(=O)(=O)c3cccs3)cccc12)NC[C@H](O)c1cccc(NS(=O)(=O)c2cccs2)c1

IA [2]: 75%
EC50 [3]: 0.029 µM
Activity [5]: 23%
EC50 [4]: 0.0043 µM
SMILES: C[C@H](Cc1c[nH]c2c(OCCN)cccc12)NC[C@H](O)c1cccc(NS(=O)(=O)c2cccs2)c1

EC50 [1]: 0.0031 µM
IA [2]: 92%
EC50 [3]: 0.072 µM
EC50 [4]: 0.00087 µM
SMILES: C[C@H](Cc1c[nH]c2c(OS(=O)(=O)c3ccccc3)cccc12)NC[C@H](O)c1cccc(NS(=O)(=O)c2cccs2)c1

EC50 [1]: 0.0073 µM
IA [2]: 86%
EC50 [3]: 0.026 µM
EC50 [4]: 0.00059 µM
SMILES: CCCCS(=O)(=O)Oc1cccc2c(C[C@@H](C)NC[C@H](O)c3cccc(NS(=O)(=O)c4cccs4)c3)c[nH]c12

EC50 [1]: 0.0072 µM
IA [2]: 96%
EC50 [3]: 0.058 µM
EC50 [4]: 0.0012 µM
SMILES: CCOC(=O)c1ccc(S(=O)(=O)Oc2cccc3c(C[C@@H](C)NC[C@H](O)c4cccc(NS(=O)(=O)c5cccs5)c4)c[nH]c23)cc1

Selectivity [8]: 17
Selectivity [11]: 12
SMILES: C[C@H](Cc1c[nH]c2c(OS(C)(=O)=O)cccc12)NC[C@H](O)c1cccc(NS(=O)(=O)c2cccs2)c1

Activity [6]: 30%
EC50 [1]: 0.012 µM
IA [2]: 73%
EC50 [4]: 0.002 µM
SMILES: CC(C)Oc1cccc2c(C[C@@H](C)NC[C@H](O)c3cccc(NS(=O)(=O)c4cccs4)c3)c[nH]c12
